Ends that are not written are not given here. PEG = not defined here
How the values were obtained:
Type in all cases: cell-based
[1] = tested on: human colon cancer cells (HCT-116); experiment: scratch assay, migration of HCT-116 cells; conditions: HCT-116, 10 μM, 48 hours; control group 47.78 ± 6.07
How it was run: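 Confluent HCT-116 monolayers were scratched, washed and cultured 48 h in 2% FBS medium with peptide at 10 μM versus PBS control, triplicate wells. Migration rate (%) = (original minus current scratch width)/original width × 100, from at least 3 images per well.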

[2] = tested on: human liver adenocarcinoma cells (SK-HEP-1); experiment: transwell invasion assay, SK-HEP-1 cells; conditions: SK-HEP-1 transwell invasion, 10 μM, 24 hours; control group 767 ± 91
How it was run: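 Serum-free SK-HEP-1 cells were seeded in matrigel-coated upper chambers over complete medium. After 4-5 h, peptide was added to the upper chamber at 10 μM final. Following 24 h at 37° C., invaded cells were fixed, crystal violet-stained, imaged and counted.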

[3] = tested on: human melanoma cells (A375); experiment: scratch assay, migration of A375 cells; conditions: A375, 10 μM, 48 hours; control group 44.03 ± 6.21
How it was run: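 Monolayers scratched, washed with PBS and cultured 48 hours in 2% FBS medium with polypeptides N1-N54 at 10 μM or PBS control, three wells per group. Migration rate (%) = (original − current scratch width)/original width×100, from imaged scratch widths.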

[4] = tested on: human prostate cancer cells (22RV1); experiment: scratch assay, migration of 22RV1 cells; conditions: 22RV1, 10 μM, 48 hours; control group 25.41 ± 5.01
How it was run: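 22RV1 monolayers (seeded 1-2×10^5 cells/well) were scratched, washed, then given 2% FBS medium with 10 μM polypeptide or PBS, triplicate wells, for 48 h. Migration rate (%) = (original − current scratch width)/original width ×100, from ≥3 images per well.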

[5] = tested on: human pharyngeal squamous-cell carcinoma cells (Fadu); experiment: scratch assay, migration of Fadu cells; conditions: 10 μM, 48 hours, control group 28.76 ± 4.08
How it was run: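 Confluent Fadu monolayers scratched, then cultured 48 h with 10 μM polypeptide in medium with 2% FBS; PBS control, triplicate wells. Migration rate (%) = (original − current scratch width)/original width × 100, from ≥3 images per well.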

[6] = tested on: human liver adenocarcinoma cells (SK-HEP-1); experiment: transwell migration assay, SK-HEP-1 cells; conditions: SK-HEP-1 transwell migration, 10 μM, 24 hours; control group 1 782 ± 108, control group 2 768 ± 86
How it was run: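 SK-HEP-1 cells in serum-free medium seeded in upper transwell chamber (2-3×10^5 cells/mL) over complete medium; after 4-5 h at 37 °C, 5% CO2, peptide added at 10 μM final in upper chamber. After 24 h, migrated cells fixed in methanol, crystal-violet stained, imaged and counted.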

[7] = tested on: human pancreatic cancer cells (PANC-1); experiment: scratch assay, migration of PANC-1 cells; conditions: PANC-1, 10 μM, 48 hours; control group 66.65 ± 3.37
How it was run: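 PANC-1 monolayers were scratched, then cultured for 48 h with 10 μM test compound in 2% FBS medium, in three parallel wells per group against a PBS control. Migration rate (%) was calculated as (original minus current scratch width) / original width × 100, from imaged wells.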

[8] = tested on: human breast cancer cells (MDA-MB-231); experiment: scratch assay, migration of MDA-MB-231 cells; conditions: MDA-MB-231, 10 μM, 48 hours; control group 36.19 ± 5.15
How it was run: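 MDA-MB-231 monolayers (1-2×10^5 cells/well) were scratched, then kept 48 h in medium with 2% FBS containing polypeptide at 10 μM, with a PBS control, in triplicate wells. Migration rate (%) was taken from scratch width: (original − current)/original ×100.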

Substance: N54: SEQ ID NO: 1 with A7R, addition of two amino acids and PEG modification at the carboxyl terminal (YRVRFLRKENVTQDAEDNTC-{PEG}; reading uncertain)
- Migration rate (%) (mean ± SD, P) [1]: 26.50 ± 3.99,** %
- Number of cells (mean ± SD, P), invaded cells [2]: 151 ± 28,****
- Migration rate (%) (mean ± SD, P) [3]: 16.91 ± 3.21,** %
- Migration rate (%) (mean ± SD, P) [4]: 12.94 ± 2.70,* %
- Migration rate (%) (mean ± SD, P) [5]: 15.88 ± 5.38,* %
- Number of cells (mean ± SD, P), migrated cells [6]: 345 ± 3,****
- Migration rate (%) (mean ± SD, P) [7]: 16.62 ± 5.73,*** %
- Migration rate (%) (mean ± SD, P) [8]: 13.37 ± 5.89,** %

Reference: patent US20220280594A1, “APPLICATION OF POLYPEPTIDE OR DERIVATIVE THEREOF” (CHENGDU HUITAI BIOMEDICINE CO., LTD., priority 2019, published 2022)
